In patent US20240100065A1, “METHODS FOR TREATING RECEPTOR-INTERACTING PROTEIN KINASE 1-MEDIATED DISEASES” (Genzyme Corporation, priority 2022, published 2024):
Where two headings read alike, the source gives them in different places.

Key:
[1] = CSF concentration, CSF-to-unbound plasma concentration ratio (Part 1b); type: in vivo, healthy adult participants (human); settings: human; for Kp: oral
Procedure: Compound 1 concentrations in CSF were measured after single oral dosing in two dedicated cohorts in Part 1b. Lumbar puncture was performed for CSF collection and only one CSF sample per participant was collected on Day 1. Given the limited number of CSF PK samples that were collected in this study, CSF PK parameters were not determined; instead, Compound 1 concentrations in CSF were reported and concentration ratio between CSF and unbound plasma was calculated.
PK population included all participants exposed to Compound 1 with no major or critical deviations related to Compound 1 and for whom PK data were considered sufficient and interpretable. PK parameters were summarized by descriptive statistics for each dose level group. Distribution of Tmax values was represented by histogram plots for each dose level group. In Part 1a, dose proportionality was assessed using a linear model on Cmax, AUClast and AUC. In Part 2, all PK analyses were performed separately for each regimen (OD and BID). Steady state was assessed on Ctrough using a non-linear model. Accumulation was assessed using a linear model on log-transformed accumulation ratio. Dose proportionality was assessed using a power model on Cmax and AUCtau on Day 1 and Day 14, separately. Variance components of log-transformed Cmax and AUCtau were estimated using a linear model. In Part 1b, CSF concentration was described by dose level group and CSF to plasma unbound concentration ratios calculated were described in the same way. 4β-hydroxycholesterol on Day 14 versus Day 1 pre-dose concentration ratios were summarized using descriptive statistics by dose level group and point estimates with 90% confidence interval (90% CI) for the geometric mean of the log-transformed Day14/Day1 ratio was calculated in Part 2.

pS166-RIPK1 = target: T1, pS166-RIPK1 (Homo sapiens, UniProt Q13546); assay: pS166-RIPK1 inhibition in vitro in microglia; type: cell-based
T1 construct: endogenous in cells
T1 sequence (Q13546 1-671): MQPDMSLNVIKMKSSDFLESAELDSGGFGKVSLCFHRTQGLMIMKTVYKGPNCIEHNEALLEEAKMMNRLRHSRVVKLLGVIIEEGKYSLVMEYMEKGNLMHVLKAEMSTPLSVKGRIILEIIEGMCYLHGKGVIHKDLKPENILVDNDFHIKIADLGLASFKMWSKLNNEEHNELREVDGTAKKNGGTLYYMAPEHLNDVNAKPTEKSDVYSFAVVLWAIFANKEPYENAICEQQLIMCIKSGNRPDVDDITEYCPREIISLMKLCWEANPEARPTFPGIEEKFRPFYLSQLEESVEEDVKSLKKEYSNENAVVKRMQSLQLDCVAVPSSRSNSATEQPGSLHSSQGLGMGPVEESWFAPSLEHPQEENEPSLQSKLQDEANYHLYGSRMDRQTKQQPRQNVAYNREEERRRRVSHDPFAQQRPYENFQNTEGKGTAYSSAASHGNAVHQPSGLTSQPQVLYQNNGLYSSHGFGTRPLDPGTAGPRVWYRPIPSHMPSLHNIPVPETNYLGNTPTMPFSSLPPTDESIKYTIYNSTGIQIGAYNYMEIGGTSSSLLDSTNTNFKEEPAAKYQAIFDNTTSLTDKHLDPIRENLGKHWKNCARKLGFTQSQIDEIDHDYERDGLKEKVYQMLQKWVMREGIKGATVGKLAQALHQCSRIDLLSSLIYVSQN

[2] = 6-month rat toxicology study (NOAEL exposure); type: in vivo
[3] = target: T2, pS166-RIPK1 in human PBMC lysates (Homo sapiens, UniProt Q13546); assay: Inhibition of pS166-RIPK1 in PBMC lysates (peripheral target engagement); type: in vivo; settings: for pS166-RIPK1 percent change from baseline: Day15-T24h
T2 construct: Human PBMC are a primary cell type that express endogenous RIPK kinase; endogenous in cells; host or cells: human PBMC isolated from blood of healthy participants
T2 sequence (Q13546 1-671): T1 sequence (Q13546 1-671)
Excerpt: Activity of RIPK1 when stimulated can be detected by an increase in autophosphorylation at serine 166 in the RIPK1 protein. Human PBMC are a primary cell type that express endogenous RIPK kinase. Therefore, the ability of Compound 1 to inhibit RIPK1 kinase activity, as measured by the inhibition of pS166-RIPK1 in prepared PBMC lysates isolated from blood samples, was investigated to assess the peripheral target engagement; pS166-RIPK1 levels in human PBMC lysates and percentage of change from baseline were calculated. In Part 1a study, six blood samples (at pre-dose, at 1, 3, 5, 8 hours on Day 1, and at 24 hours on Day 2) for pS166-RIPK1 level were collected per participant. In Part 2 study, blood samples were collected at timepoint (predose/baseline, D7 and D14 T0 (prior to dosing), at the followings timepoints at D14: T1h, T3H, T6H, T8h, then at D15/T24H and D16/T48H. Interquartile range (IQR: Q1-Q3) and geometric mean were added to the usual descriptive statistics.
Levels of pS166-RIPK1 and percentage of change from baseline were summarized descriptively by dose level group and time point. PD population includes participants included in the safety population with no major or critical deviations related to IMP and/or pharmacodynamic (PD) measurements, for whom the PD data are considered sufficient and interpretable will be included in the pharmacodynamic population. Scatterplots were provided for pS166-RIPK1 data versus PK plasma concentration in the PK/PD population. For each participant, the percent change compared to their baseline was evaluated at multiple timepoints up to 24 hours in Part 1a and up to 48 hours in Part 2.
The amount of phosphorylation at serine 166 in RIPK1 protein (pS166-RIPK1) was measured in PBMC lysates prepared from blood samples. Variability in baseline values between individuals was observed across the treatment groups. For each participant, the percent change compared to their baseline was evaluated at multiple timepoints. A negative value for percent change indicates an inhibition of phosphorylation of RIPK1 at-serine166 (pS166-RIPK1).

[4] = 20 mg QD vs 6-month rat toxicology study

CC(C)(C(=O)N1CCOc2c(C#N)cncc2C1)C(F)F [Compound 1, 4-(3,3-difluoro-2,2-dimethyl-propanoyl)-3,5-dihydro-2H-pyrido[3,4-f] [1,4]oxazepine-9-carbonitrile]
CSF/unbound plasma ratio, mean values [1]: ~1.0
Kp ([1]; CSF / unbound plasma, Part 1b single dose fed, [T1H-T3H], read-out: CSF-to-unbound Plasma concentration ratio, geometric mean): 0.817
Kp ([1]; CSF / unbound plasma, Part 1b single dose fed, [T1H-T3H], read-out: CSF-to-unbound Plasma concentration ratio, mean): 0.84
Kp ([1]; CSF / unbound plasma, Part 1b single dose fed, [T1H-T3H], read-out: CSF-to-unbound Plasma concentration ratio, median): 0.732
Kp ([1]; CSF / unbound plasma, Part 1b single dose fed, [T4H-T6H], read-out: CSF-to-unbound Plasma concentration ratio, geometric mean): 0.755
Kp ([1]; CSF / unbound plasma, Part 1b single dose fed, [T4H-T6H], read-out: CSF-to-unbound Plasma concentration ratio, mean): 0.804
Kp ([1]; CSF / unbound plasma, Part 1b single dose fed, [T4H-T6H], read-out: CSF-to-unbound Plasma concentration ratio, median): 0.825
Kp ([1]; CSF / unbound plasma, Part 1b single dose fed, [T5H-T16H], read-out: CSF-to-unbound Plasma concentration ratio, geometric mean): 1.27
Kp ([1]; CSF / unbound plasma, Part 1b single dose fed, [T5H-T16H], read-out: CSF-to-unbound Plasma concentration ratio, mean): 1.27
Kp ([1]; CSF / unbound plasma, Part 1b single dose fed, [T5H-T16H], read-out: CSF-to-unbound Plasma concentration ratio, median): 1.31
Kp ([1]; CSF / unbound plasma, time intervals [T1H-T3H] or [T4H-T6H], read-out: Ratio CSF to unbound plasma): ~0.8
Kp ([1]; CSF and unbound plasma, read-out: CSF/unbound plasma ratio, mean values): ~1
Kp ([1]; CSF and unbound plasma, time interval [T8H-T10H], read-out: Ratio CSF to unbound plasma): ~1.3
EC90 (pS166-RIPK1): 0.064 µM
Human Cmax and AUCtau, fold lower than exposure at NOAEL ([2]; 15 mg BID vs 6-month rat toxicology study): 10 fold
Human AUC0-24 h, fold lower than AUC0-24 at rat NOAEL ([2]; 20 mg BID vs female rats): < 8 fold
Human Cmax, fold lower than Cmax at rat NOAEL ([2]; 20 mg BID vs female rats): < 10 fold
Human AUC0-24, fold lower than exposure at NOAEL [2, 4]: 17 fold
Human Cmax, fold lower than exposure at NOAEL [2, 4]: 15 fold
Cmax ([2]; rat, in vivo, female rats, end of Week 26, 6-month study): 13.1 µM
AUC(0-t) ([2]; rat, in vivo, female rats, end of Week 26, 6-month study, read-out: AUC0-24 at the NOAEL): 126 µM·h
Median inhibition of pS166-RIPK1 ([3]; Part 1a 20 mg, 1 hr post dose): 90.43%
Median inhibition of pS166-RIPK1, peak ([3]; Part 1a 20 mg, 5 hrs): 96.63%
Median inhibition of pS166-RIPK1, maintained ([3]; Part 1a 20 mg, over 24 hours): greater than 94%
Peak median inhibition of pS166-RIPK1 ([3]; Part 1a 30 mg, 3 hr, one replicate): 91.48%
Median inhibition of pS166-RIPK1 ([3]; Part 1a 30 mg, 24 hours post dose, one replicate): 80.16%
Peak median inhibition of pS166-RIPK1 ([3]; Part 1a 40 mg, 1 hr post dose, 4 participants): 86.69%
Median inhibition of pS166-RIPK1 ([3]; Part 1a, all dose groups (10, 20, 30, 40 mg), 1 hour up to 5 hours post dose): greater than 80%
pS166-RIPK1 percent change from baseline ([3]; Part 2, 15 mg BID): −80.29%
pS166-RIPK1 percent change from baseline ([3]; Part 2, 20 mg BID): −97.76%
Inhibition of pS166-RIPK1 ([3]; Part 2, all dose level groups (10 mg QD to 20 mg BID), Ctrough Day 7 up to 24 hours post-last dosing): ~90%
Emax at 10 mg ([3]; Part 2 Day 14, 10 mg QD, 6 hours post-last morning dose, n=5, read-out: Median inhibition of pS166-RIPK1, maximal effect): 99%
Emax at 15 mg ([3]; Part 2 Day 14, 15 mg BID, 6 hours post-last morning dose, n=7, read-out: Median inhibition of pS166-RIPK1, maximal effect): 92.8%
Emax at 20 mg ([3]; Part 2 Day 14, 20 mg BID, 8 hours post-last morning dose, n=3, read-out: Median inhibition of pS166-RIPK1, maximal effect): 99.2%
Emax at 20 mg ([3]; Part 2 Day 14, 20 mg QD, 6 hours post-last morning dose, n=4, read-out: Median inhibition of pS166-RIPK1, maximal effect): 96.5%
EC90 ([3]; in vivo in PBMC): 0.038 µM
